Reference: patent US9987296B2, “Compositions including anthocyanin or anthocyanidin for the prevention or treatment of Articular cartilage-associated conditions” (priority 2008, dated 2018)
Where two headings read alike, the source gives them in different places.

Tests used:
[1] = system: rodent pancreatic beta-cells; conditions: in culture, with 4 and 10 mM glucose; cited from earlier work
[2] = system: osteoarthritic synovium explants; conditions: cited from earlier work
[3] = system: Human articular chondrocytes; experiment: Cell viability (calcein AM / ethidium homodimer staining); type: cell-based; conditions: concentrations above 100 uM up to 500 uM, 96 hours
Description: Chondrocytes were isolated from non-arthritic regions of adult human articular cartilage (N=3 donors) and expanded in tissue culture flasks in DMEM supplemented with 10% calf serum.
At higher concentrations, the color of the anthocyanin interfered with the spectrophotometer reading; therefore, cell viability was additionally measured with calcein staining as follows: Live and dead cells were simultaneously viewed in situ with a confocal microscope (LSM 510; Zeiss, Wetzlar, Germany), using a fluorescent double stain. Calcein AM (1 uM; Invitrogen, Carlsbad, Calif.), a fluorescein derivative that is metabolized by nonspecific esterase present in viable cells, was used to stain live cells. The use of 8 uM ethidium homodimer (Invitrogen), a nucleic acid stain that is excluded by intact cell membranes, enabled visualization of the nuclei of dead cells. After 96-hour exposure to the appropriate concentration of anthocyanins, chondrocytes were cultured in DMEM supplemented with Calcein AM and ethidium homodimer for 45 minutes. Live and dead cells were counted using an automated image analysis script written in Matlab (MathWorks, Natick, Mass.) to measure percentage cell viability.

bovine chondrocytes = experiment: Matrix synthesis rate (35S) of bovine chondrocytes in alginate beads; type: cell-based; conditions: 100 uM with IL-1 5 ng/mL
Description: Chondrocytes were isolated from weight-bearing regions of young (18-30 months old) bovine femoral condyles. Primary cells were obtained from 3 different animals and suspended in beads of 2% alginate. The alginate beads were precultured in DMEM supplemented with 10% calf serum for 48 hours. Before the experiments, the chondrocytes were serum-starved overnight with 0.1% serum to reduce the effect of serum and to reduce anabolic activity to baseline.
For each treatment condition, 10 millicuries of ^35S was added to each well and incubated for the appropriate duration. At the appropriate harvest time point, each well was then washed extensively with PBS (5-6 times with 500 uL, of PBS), before trypsin and EDTA was added to dissolve alginate. After 20-30 minutes, the dissolved gels and released cells were transferred into 1.5 ml Eppendorf tubes with 150 uL, of calf serum (to promote pellet formation) and the cells were centrifuged at 2000 rpm for 5 minutes. The supernatant was removed via pipette without disturbing the cell pellet. The remaining cell and supernatant (approximately 300 ul) was then mixed with 500 uL of PBS and transferred to scintillation vials, to which 5 ml of scintillation fluid was dispensed. Each scintillation vial was capped, thoroughly vortexed and then placed in a gamma counter to measure gamma radiation emission for each sample. Each sample was measured for 5 minutes.

Molecule: Oc1ccc(-c2[o+]c3cc(O)cc(O)c3cc2O)cc1.[Cl-] [Pelargonidin Chloride]
- insulin secretion [1]: stimulate insulin secretion

Molecule: N[C@H]1C(O)O[C@H](CO)[C@@H](O)[C@@H]1O (stereo partly drawn) [glucosamine]
- increase of HA production ([2]; 0.5 mM): did not
- increase of HA production ([2]; 5 mM): approximately 2 fold

Molecule: OC[C@H]1OC(Oc2cc3c(O)cc(O)cc3[o+]c2-c2ccc(O)cc2)[C@H](O)[C@@H](O)[C@H]1O.[Cl-] (stereo partly drawn) [pelargonidin-3-galactoses, reference compound]
- insulin secretion [1]: stimulate insulin secretion

Molecule: Delphinidin-3-O-Glucoside
- toxicity relative to the other compounds tested [3]: least toxic at 200 μM
- matrix synthesis rates (anti-arthritic effect) (bovine chondrocytes; 12 hours, listed as Delphinidin-3-O-glucoside): reversed the effect of IL-1 suppression on matrix synthesis rates
- matrix synthesis rates (anti-arthritic effect) (bovine chondrocytes; 12 hours, listed as delphinidin-3-0-glucoside): anti-arthritic effect
- matrix synthesis rates (anti-arthritic effect) (bovine chondrocytes; 12 hours, listed as delphinidin-3-O-glucoside): anti-arthritic effect
- matrix synthesis rates (anti-arthritic effect) (bovine chondrocytes; 24 hours, listed as Delphinidin-3-O-glucoside): reversed the effect of IL-1 suppression on matrix synthesis rates
- matrix synthesis rates (anti-arthritic effect) (bovine chondrocytes; 24 hours, listed as delphinidin-3-0-glucoside): anti-arthritic effect
- matrix synthesis rates (anti-arthritic effect) (bovine chondrocytes; 24 hours, listed as delphinidin-3-O-glucoside): anti-arthritic effect
- insulin secretion [1]: stimulate insulin secretion
